Assay results as given in patent US4777167A, “Pharmaceutically useful substituted thiacycloalkeno [3,2-b]pyridines, compositions and method of use” (Ortho Pharmaceutical Corporation, priority 1987, dated 1988).
Values belong to the compound of their own block, whether it stands above or below them.

Columns and labels:
calcium channels = target: T1, calcium channels (Oryctolagus cuniculus, UniProt P15381); test: Inhibition of nitrendipine binding (3H-nitrendipine displacement, rabbit heart membranes); set-up: species or system rabbit (New Zealand white); settings: Table II, 90 min, 4° C.
T1 construct: from tissue; host or cells: heart of female New Zealand white rabbits, membrane fraction (42,000×g pellet)
Experimental: (1) Inhibition of nitrendipine binding to calcium channels.
The assay for inhibition of nitrendipine binding follows the following procedure:
Female, New Zealand white rabbits (1-2 kg) are sacrificed by cervical dislocation, and the heart is immediately removed, cleaned, and chopped into small pieces. The tissue is homogenized in 5× volume of 0.05M Hepes buffer, pH 7.4. The homogenate is centrifuged at 4000×g for 10 minutes; the supernatant is recentrifuged at 42,000×g for 90 minutes. The resulting membrane pellet is resuspended (0.7 ml/g weight) in 0.05M Hepes, pH 7.4 and stored at -70° C. until used. Each tube of the binding assay contains ^3 H- nitrendipine (0.05-0.50 nM), buffer, membranes (0.10 ml), and test compound in a total volume of 1.0 ml. After 90 minutes at 4° C., the bound nitrendipine is separated from the unbound by filtration on Whatman GF/C fibers. After rinsing, the filters are dried and counted in a liquid scintillation counter.
Non-specific binding of ^3 H-nitrendipine (that amount bound in the presence of excess unlabelled nitrendipine) is subtracted from the total bound to obtain specifically bound radiolabeled nitrendipine. The amount of specifically bound nitrendipine in the presence of a test compound is compared to that amount bound in the absence of a compound. A percent displacement (or inhibition) can then be obtained.

trachealis muscle = test: Inhibition of calcium dependent smooth muscle contraction (KCl-challenged trachea); assay type: cell-based, dog; settings: Canis lupus familiaris, Table II; for inhibition at 1 µM: concentration 1.0 μM; for inhibition at 0.1 µM: concentration 0.1 μM; for inhibition at 0.1 µM / inhibition at 2 µM / inhibition at 0.2 µM: read-out: Inhibition Trachea Muscle Contraction % Inhibition; for inhibition at 2 µM: concentration 2.0 μM; for inhibition at 0.2 µM: concentration 0.2 μM
Experimental: The test for inhibition of calcium dependent smooth muscle contraction is determined according to the following procedure:
Trachea from dogs sacrificed by excess KCl injection are stored overnight at 4° C. in oxygenated Krebs-Henseleit buffer. Tracheal rings, one cartilage segment wide (5-10 mm), are cut starting from the bronchial end. After cutting the cartilage, the trachealis muscle tissue is suspended in oxygenated Krebs-Henseleit buffer at 37° C. in a 25 ml tissue bath. After a 60 minutes equilibration period, the tissues are challenged with 10 μM carbachol. After 5 minutes the tissues are rinsed and allowed to rest 50 minutes. The tissues are then challenged with 50 mM KCl and, after 30 minutes, the contractions are quantitated. The tissues are then rinsed and reequilibrated for 50 minutes. Test compounds are then added for 10 minutes, and the tissue is rechallenged with 50 mMKcl. After 30 minutes, the contraction is recorded and used to determine the % inhibition of control.
The percent inhibition of smooth muscle contraction is calculated from response data before and after drug treatment. [formula] A rating is assigned to the compound depending upon the percent inhibition obtained.

Aorta Muscle = test: Inhibition of aorta muscle contraction; assay type: cell-based; settings: Table II; for inhibition at 0.1 µM: concentration 0.1 μM

T1 sequence (P15381 whole entry, other chains not shown): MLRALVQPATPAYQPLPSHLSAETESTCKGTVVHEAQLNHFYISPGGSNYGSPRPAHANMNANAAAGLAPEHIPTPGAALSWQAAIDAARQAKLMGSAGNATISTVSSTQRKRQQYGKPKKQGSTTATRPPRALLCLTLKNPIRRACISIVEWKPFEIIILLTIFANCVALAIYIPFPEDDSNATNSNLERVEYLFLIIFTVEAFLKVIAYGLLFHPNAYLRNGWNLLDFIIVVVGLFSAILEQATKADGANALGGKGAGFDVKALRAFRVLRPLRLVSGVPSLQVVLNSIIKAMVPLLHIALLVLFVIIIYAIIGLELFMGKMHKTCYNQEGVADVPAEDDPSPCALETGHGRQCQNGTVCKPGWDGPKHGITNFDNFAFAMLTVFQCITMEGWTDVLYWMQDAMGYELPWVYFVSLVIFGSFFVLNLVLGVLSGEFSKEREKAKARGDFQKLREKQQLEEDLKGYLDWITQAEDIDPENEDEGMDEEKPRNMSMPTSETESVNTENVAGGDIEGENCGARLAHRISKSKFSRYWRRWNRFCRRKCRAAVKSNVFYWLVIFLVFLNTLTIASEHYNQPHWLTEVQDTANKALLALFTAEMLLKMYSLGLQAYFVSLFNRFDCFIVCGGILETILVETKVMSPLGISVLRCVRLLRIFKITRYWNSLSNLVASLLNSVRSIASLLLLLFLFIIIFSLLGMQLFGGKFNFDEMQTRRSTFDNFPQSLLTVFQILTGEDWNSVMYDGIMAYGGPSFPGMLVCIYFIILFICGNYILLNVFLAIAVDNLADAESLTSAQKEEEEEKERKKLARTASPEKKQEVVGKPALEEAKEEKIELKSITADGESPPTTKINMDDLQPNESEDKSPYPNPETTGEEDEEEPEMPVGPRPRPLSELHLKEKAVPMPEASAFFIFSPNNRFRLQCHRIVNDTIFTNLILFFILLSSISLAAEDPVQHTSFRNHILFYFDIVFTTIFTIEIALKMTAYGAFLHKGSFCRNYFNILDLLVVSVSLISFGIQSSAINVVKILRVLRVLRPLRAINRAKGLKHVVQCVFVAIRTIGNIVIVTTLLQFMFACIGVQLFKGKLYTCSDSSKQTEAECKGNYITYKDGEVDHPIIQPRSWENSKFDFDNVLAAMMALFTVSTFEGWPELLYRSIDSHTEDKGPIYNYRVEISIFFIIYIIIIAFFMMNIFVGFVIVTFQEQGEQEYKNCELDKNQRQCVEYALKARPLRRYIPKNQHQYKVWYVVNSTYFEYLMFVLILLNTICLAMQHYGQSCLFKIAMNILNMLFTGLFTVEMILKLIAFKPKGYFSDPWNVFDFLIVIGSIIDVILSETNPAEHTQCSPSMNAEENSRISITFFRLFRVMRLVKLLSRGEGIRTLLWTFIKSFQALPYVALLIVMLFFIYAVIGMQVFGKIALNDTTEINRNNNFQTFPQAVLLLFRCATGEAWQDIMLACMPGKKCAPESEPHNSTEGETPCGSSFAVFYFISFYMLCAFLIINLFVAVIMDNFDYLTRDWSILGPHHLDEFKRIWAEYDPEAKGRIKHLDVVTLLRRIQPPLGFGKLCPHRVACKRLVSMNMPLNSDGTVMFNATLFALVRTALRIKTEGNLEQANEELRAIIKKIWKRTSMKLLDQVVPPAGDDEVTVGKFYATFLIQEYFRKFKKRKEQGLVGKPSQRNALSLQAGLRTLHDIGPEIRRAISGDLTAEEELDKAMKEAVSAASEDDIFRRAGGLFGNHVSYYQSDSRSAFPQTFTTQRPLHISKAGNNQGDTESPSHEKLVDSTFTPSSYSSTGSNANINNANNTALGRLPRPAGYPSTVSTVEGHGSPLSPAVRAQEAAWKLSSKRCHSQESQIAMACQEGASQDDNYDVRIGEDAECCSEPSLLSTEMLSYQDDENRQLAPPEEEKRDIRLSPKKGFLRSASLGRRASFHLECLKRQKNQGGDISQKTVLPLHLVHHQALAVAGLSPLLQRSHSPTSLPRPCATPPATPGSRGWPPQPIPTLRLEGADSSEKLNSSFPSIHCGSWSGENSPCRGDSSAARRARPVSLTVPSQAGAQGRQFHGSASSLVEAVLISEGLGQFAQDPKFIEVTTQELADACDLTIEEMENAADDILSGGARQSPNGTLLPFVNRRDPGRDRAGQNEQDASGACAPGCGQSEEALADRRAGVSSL
T1 sequence (P13806 27-960 partner limits assumed, other chains not shown): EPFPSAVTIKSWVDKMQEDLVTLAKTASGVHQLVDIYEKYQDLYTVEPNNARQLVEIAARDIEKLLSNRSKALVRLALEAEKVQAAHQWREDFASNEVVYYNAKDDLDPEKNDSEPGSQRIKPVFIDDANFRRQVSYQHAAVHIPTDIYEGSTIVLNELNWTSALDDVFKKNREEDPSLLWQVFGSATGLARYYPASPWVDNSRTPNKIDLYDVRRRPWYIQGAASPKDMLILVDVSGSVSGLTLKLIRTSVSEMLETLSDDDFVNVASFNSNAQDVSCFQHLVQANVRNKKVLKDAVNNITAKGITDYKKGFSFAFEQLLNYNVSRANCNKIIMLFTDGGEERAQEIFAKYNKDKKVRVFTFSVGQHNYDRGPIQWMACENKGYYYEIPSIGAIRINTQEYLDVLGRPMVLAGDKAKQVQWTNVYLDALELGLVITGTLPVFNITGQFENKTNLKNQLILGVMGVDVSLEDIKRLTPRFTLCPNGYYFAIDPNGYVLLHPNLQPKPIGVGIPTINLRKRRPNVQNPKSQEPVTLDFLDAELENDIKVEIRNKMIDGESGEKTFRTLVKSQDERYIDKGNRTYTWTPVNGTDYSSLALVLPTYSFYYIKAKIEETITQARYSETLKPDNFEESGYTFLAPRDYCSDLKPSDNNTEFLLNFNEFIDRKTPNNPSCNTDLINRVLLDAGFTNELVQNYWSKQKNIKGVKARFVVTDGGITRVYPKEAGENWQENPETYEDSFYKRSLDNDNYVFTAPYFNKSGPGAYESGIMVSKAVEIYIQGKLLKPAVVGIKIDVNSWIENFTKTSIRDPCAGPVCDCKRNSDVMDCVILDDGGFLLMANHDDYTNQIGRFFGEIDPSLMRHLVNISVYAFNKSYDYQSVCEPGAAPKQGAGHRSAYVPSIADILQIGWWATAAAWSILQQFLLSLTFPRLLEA
T1 sequence (P13806 961-1106 partner limits assumed, other chains not shown): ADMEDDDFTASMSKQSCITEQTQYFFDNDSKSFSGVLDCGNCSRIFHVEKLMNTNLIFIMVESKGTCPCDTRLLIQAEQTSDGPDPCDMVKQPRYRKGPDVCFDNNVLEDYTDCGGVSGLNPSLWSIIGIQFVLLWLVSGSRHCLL

SMILES: CC1=C(C(=O)OCCN(C)Cc2ccccc2)C(c2c(F)c(F)c(F)c(F)c2F)C2=C(CCCCCS2(=O)=O)N1 (stereo not drawn) [5 C6 F5, N-Benzyl-N-methylaminoethyl 10-(2,3,4,5,6-pentafluorophenyl)-3,4,5,6,7,10-hexahydro-8-methyl-1,1-dioxo-2H-thiacycloocteno[3,2-b]pyridine-9-carboxylate]
- IC50 (calcium channels): 87 nM
- inhibition at 0.1 µM (trachealis muscle): 50%
- inhibition at 0.1 µM (Aorta Muscle): 70%

SMILES: CC1=C(C(=O)OCCO)C(c2cccc([N+](=O)[O-])c2)C2=C(CCCCS2(=O)=O)N1 (stereo not drawn) [4 3-NO2C6 H4 CH2 CH2 OH]
- IC50 (calcium channels): 2400 nM
- inhibition at 2 µM (trachealis muscle): 23%
- inhibition at 3 µM (Aorta Muscle; concentration 3.0 μM): 41%

SMILES: CC1=C(C(=O)OCCN(C)Cc2ccccc2)C(c2ccccc2C(F)(F)F)C2=C(CCCCS2(=O)=O)N1 (stereo not drawn) [4 2-CF3C6 H4, N-Benzyl-N-methylaminoethyl 2,4,5,6,9-hexahydro-7-methyl-9-(2-trifluoromethylphenyl)-1,1-dioxothiacyclohepteno[3,2-b]pyridine-8-carboxylate]
- IC50 (calcium channels): 160 nM
- inhibition at 0.1 µM (trachealis muscle): 64%
- inhibition at 0.1 µM (Aorta Muscle): 85%

SMILES: CC1=C(C(=O)OCCN(C)Cc2ccccc2)C(c2cccc(C(F)(F)F)c2)C2=C(CCCCS2(=O)=O)N1 (stereo not drawn) [4 3-CF3C6 H4]
- IC50 (calcium channels): 2800 nM
- inhibition at 0.2 µM (trachealis muscle): 37%
- inhibition at 0.1 µM (Aorta Muscle): 44%

SMILES: CC1=C(C(=O)OCCN(C)CCc2ccccc2)C(c2cccc(Cl)c2Cl)C2=C(CCCCCS2(=O)=O)N1 (stereo not drawn)
- IC50 (calcium channels): 149 nM
- inhibition at 1 µM (trachealis muscle): 57%
- inhibition at 0.1 µM (Aorta Muscle): 67%

SMILES: CC1=C(C(=O)OCCN(C)c2ccccc2)C(c2ccccc2[N+](=O)[O-])C2=C(CCCCS2(=O)=O)N1 (stereo not drawn) [4 2-NO2C6 H4 CH2 CH2 NCH3 C6 H5]
- IC50 (calcium channels): 86 nM
- inhibition at 0.1 µM (trachealis muscle): 57%
- inhibition at 0.1 µM (Aorta Muscle): 43%

SMILES: CC1=C(C(=O)OC2CCN(Cc3ccccc3)CC2)C(c2cccc([N+](=O)[O-])c2)C2=C(CCCCS2(=O)=O)N1 (stereo not drawn) [4 3-NO2C6 H4 drawing 7]
- IC50 (calcium channels): 860 nM
- inhibition at 2 µM (trachealis muscle): 17%
- inhibition at 0.1 µM (Aorta Muscle): 12%

SMILES: CC1=C(C(=O)OCCN(C)Cc2ccccc2)C(c2cccc(Cl)c2Cl)C2=C(CCCCCS2(=O)=O)N1 (stereo not drawn) [5 2,3-Cl2C6 H3]
- IC50 (calcium channels): 75 nM
- inhibition at 0.1 µM (trachealis muscle): 26%
- inhibition at 0.1 µM (Aorta Muscle): 58%

SMILES: CC1=C(C(=O)OCCN(C)Cc2ccccc2)C(c2ccccc2F)C2=C(CCCCS2(=O)=O)N1 (stereo not drawn) [4 2-FC6 H4]
- IC50 (calcium channels): 440 nM
- inhibition at 2 µM (trachealis muscle): 84%
- inhibition at 0.1 µM (Aorta Muscle): 32%

SMILES: CC1=C(C(=O)OCCN(C)Cc2ccccc2)C(c2ccccc2OC(F)F)C2=C(CCCCCS2(=O)=O)N1 (stereo not drawn) [5 2-OCHF2C6 H4, N-Benzyl-N-methylaminoethyl 10-(2-difluoromethoxyphenyl)-3,4,5,6,7,10-hexahydro-8-methyl-1,1-dioxothiacycloocteno[3,2-b]pyridine-9-carboxylate]
- IC50 (calcium channels): 95 nM
- inhibition at 0.1 µM (trachealis muscle): 76%
- inhibition at 0.01 µM (Aorta Muscle; concentration 0.01 μM): 80%

SMILES: CC1=C(C(=O)OCCCN(C)Cc2ccccc2)C(c2cccc([N+](=O)[O-])c2)C2=C(CCCCS2(=O)=O)N1 (stereo not drawn) [4 3-NO2 C6 H4 CH2 CH2 CH2 NCH3 CH2 C6 H5]
- IC50 (calcium channels): 290 nM
- inhibition at 2 µM (trachealis muscle): 50%
- inhibition at 0.1 µM (Aorta Muscle): 25%

SMILES: CC1=C(C(=O)OCCN(C)Cc2ccccc2)C(c2cccc(C(F)(F)F)c2Cl)C2=C(CCCCS2(=O)=O)N1 (stereo not drawn) [4 2-Cl,3-CF3C6 H3]
- IC50 (calcium channels): 390 nM
- inhibition at 0.2 µM (trachealis muscle): 50%
- inhibition at 0.1 µM (Aorta Muscle): 66%

SMILES: CC1=C(C(=O)OCCN(C)c2ccccc2)C(c2ccccc2C(F)(F)F)C2=C(CCCCS2(=O)=O)N1 (stereo not drawn) [4 2-CF3C6 H4 CH2 CH2 NCH3 C6 H5]
- IC50 (calcium channels): 46 nM
- inhibition at 0.1 µM (trachealis muscle): 59%
- inhibition at 0.1 µM (Aorta Muscle): 57%

SMILES: CC1=C(C(=O)OCCN(C)Cc2ccccc2)C(c2cc(F)ccc2F)C2=C(CCCCS2(=O)=O)N1 (stereo not drawn) [4 2,5-F2C6 H3]
- IC50 (calcium channels): 120 nM
- inhibition at 0.1 µM (trachealis muscle): 43%
- inhibition at 0.1 µM (Aorta Muscle): 47%

Further lines, with some results ahead:

- IC50 (calcium channels): 1000 nM
SMILES: CC1=C(C(=O)OCCCN(C)Cc2ccccc2)C(c2ccccc2[N+](=O)[O-])C2=C(CCCCS2(=O)=O)N1 (stereo not drawn) [4 2-NO2C6 H4 CH2 CH2 CH2 NCH3 CH2 C6 H5]
- inhibition at 1 µM (trachealis muscle): 41%
- inhibition at 0.1 µM (Aorta Muscle): 7.7%

- IC50 (calcium channels): 29 nM
SMILES: CC1=C(C(=O)OCCN(C)Cc2ccccc2)C(c2c(F)cccc2Cl)C2=C(CCCCS2(=O)=O)N1 (stereo not drawn) [4 2-Cl,6-FC6 H3, N-Benzyl-N-methylaminoethyl 9-(2-chloro-6-fluorophenyl)-2,4,5,6,9-hexahydro-7-methyl-1,1-dioxothiacyclohepteno[3,2-b]pyridine-8-carboxylate]
- inhibition at 0.1 µM (trachealis muscle): 50%
- inhibition at 0.1 µM (Aorta Muscle): 66%

- IC50 (calcium channels): 18 nM
SMILES: CC1=C(C(=O)OCCN(C)c2ccccc2)C(c2c(F)c(F)c(F)c(F)c2F)C2=C(CCCCCS2(=O)=O)N1 (stereo not drawn) [5 C6 F5 CH2 CH2 NCH3 C6 H5, N-Methyl-N-phenylaminoethyl 10-(2,3,4,5,6-pentafluorophenyl)-3,4,5,6,7,10-hexahydro-8-methyl-1,1-dioxothiacycloocteno[3,2-b]pyridine-9-carboxylate]
- inhibition at 0.1 µM (trachealis muscle): 47%
- inhibition at 0.1 µM (Aorta Muscle): 63%

- IC50 (calcium channels): 45 nM
SMILES: CC1=C(C(=O)OCCN(C)Cc2ccccc2)C(c2cccc([N+](=O)[O-])c2)C2=C(CCCCCS2(=O)=O)N1 (stereo not drawn) [5 3-NO2C6 H4, N-Benzyl-N-methylaminoethyl 3,4,5,6,7,10-hexahydro-8-methyl-10-(3-nitrophenyl)-1,1-dioxo-2H-thiacycloocteno[3,2-b]pyridine-9-carboxylate]
- inhibition at 0.1 µM (trachealis muscle): 43%
- inhibition at 0.1 µM (Aorta Muscle): 67%

- IC50 (calcium channels): 470 nM
SMILES: CC1=C(C(=O)OCCN(C)Cc2ccccc2)C(c2cccc(C(F)(F)F)c2Cl)C2=C(CCCCCCS2(=O)=O)N1 (stereo not drawn) [6 2-Cl,3-CF3C6 H3, N-Benzyl-N-methylaminoethyl 19-(2-chloro-3-trifluoromethylphenyl)-2,3,4,5,6,7,8,11-octahydro-9-methyl-1,1-dioxothiacyclononeno[3,2-b]pyridine-10-carboxylate]
- inhibition at 2 µM (trachealis muscle): 46%
- inhibition at 0.1 µM (Aorta Muscle): 30%

- IC50 (calcium channels): 86 nM
SMILES: CC1=C(C(=O)OCCN(C)Cc2ccccc2)C(c2c(Cl)cccc2Cl)C2=C(CCCCS2(=O)=O)N1 (stereo not drawn) [4 2,6-Cl2C6 H3]
- inhibition at 0.1 µM (trachealis muscle): 55%
- inhibition at 0.1 µM (Aorta Muscle): 50%

- IC50 (calcium channels): 100 nM
SMILES: CC1=C(C(=O)OCCN(C)Cc2ccccc2)C(c2cccc(Cl)c2Cl)C2=C(CCCCS2(=O)=O)N1 (stereo not drawn) [4 2,3-Cl2C6 H3, N-Benzyl-N-methylaminoethyl 9-(2,3-dichlorophenyl)-2,4,5,6,9-hexahydro-7-methyl-1,1-dioxothiacyclohepteno[3,2-b]pyridine-8-carboxylate]
- inhibition at 0.1 µM (trachealis muscle): 62%
- inhibition at 0.1 µM (Aorta Muscle): 83%

- IC50 (calcium channels): 100 nM
SMILES: CC1=C(C(=O)OCCN2CCc3ccccc32)C(c2cccc([N+](=O)[O-])c2)C2=C(CCCCS2(=O)=O)N1 (stereo not drawn) [4 3-NO2C6 H4 drawing 9]
- inhibition at 1 µM (trachealis muscle): 56%
- inhibition at 0.1 µM (Aorta Muscle): 80%

- IC50 (calcium channels): 220 nM
SMILES: CC1=C(C(=O)OCCN(C)Cc2ccccc2)C(c2ccccc2Cl)C2=C(CCCCS2(=O)=O)N1 (stereo not drawn) [4 2-ClC6 H4, N-Benzyl-N-methylaminoethyl 9-(2-chlorophenyl)-2,4,5,6,9-hexahydro-7-methyl-1,1-dioxothiacyclohepteno[3,2-b]pyridine-8-carboxylate]
- inhibition at 0.1 µM (trachealis muscle): 57%
- inhibition at 0.1 µM (Aorta Muscle): 54%

- IC50 (calcium channels): 260 nM
SMILES: CC1=C(C(=O)OCCN(C)Cc2ccccc2)C(c2cc([N+](=O)[O-])ccc2Cl)C2=C(CCCCS2(=O)=O)N1 (stereo not drawn) [4 2-Cl,5-NO2C6 H3]
- inhibition at 0.1 µM (trachealis muscle): 38%
- inhibition at 0.1 µM (Aorta Muscle): 63%

- IC50 (calcium channels): 65 nM
SMILES: CC1=C(C(=O)OCCc2ccccn2)C(c2cccc([N+](=O)[O-])c2)C2=C(CCCCCS2(=O)=O)N1 (stereo not drawn) [5 3-NO2C6 H4 drawing 10]
- inhibition at 0.1 µM (trachealis muscle): 53%
- inhibition at 0.1 µM (Aorta Muscle): 48%

- IC50 (calcium channels): 200 nM
SMILES: CC1=C(C(=O)OCCN(C)Cc2ccccc2)C(c2cccc(C(F)(F)F)c2Cl)C2=C(CCCCCS2(=O)=O)N1 (stereo not drawn) [5 2-Cl,3-CF3C6 H3, N-Benzyl-N-methylaminoethyl 10-(2-chloro-3-trifluoromethylphenyl)-3,4,5,6,7,10-hexahydro-8-methyl-1,1-dioxothiacycloocteno[3,2-b]pyridine-9-carboxylate]
- inhibition at 0.1 µM (trachealis muscle): 57%
- inhibition at 0.1 µM (Aorta Muscle): 78%

- IC50 (calcium channels): 440 nM
SMILES: CC1=C(C(=O)OCCN(C)Cc2ccccc2)C(c2ccccc2[N+](=O)[O-])C2=C(CCCCS2(=O)=O)N1 (stereo not drawn) [4 2-NO2C6 H4]
- inhibition at 0.1 µM (trachealis muscle): 49%
- inhibition at 0.1 µM (Aorta Muscle): 44%
